The text below walks through data of patent publication US7312246B2, “Proteomimetic compounds and methods” (Yale University, priority 2001, dated 2007).

The nature of one series: Solubility in buffer. Type of series: physicochemical. To be noted: buffer with <1% DMSO. The source says:
For synthetic simplicity we changed the indole of Trp800 to phenyl and removed the hydroxyl of Thr803. Using Negishi couplings of differently substituted phenyltriflates, we prepared terphenyl a as a mimic of the calmodulin binding face of smMLCK.

Series [1] deals with T1, calmodulin (CaM) (Homo sapiens, UniProt P0DP23). As to the kind of experiment: Antagonism of CaM activation of phosphodiesterase (PDE), monitored by hydrolysis of mant-cGMP. The settings on record: for IC50: 13.9 nM CaM, 50 mu/ml PDE, 8 μM mant-cGMP, pH 7.0, read-out: IC50, inhibition of CaM activation of PDE. The class given is biochemical.
Description: 13.9 nM CaM, 50 mu/ml PDE, 8 μM mant-cGMP, 10 mM Mops, 0.5 mM MgCl2, 90 mM KCl, 0.73 mM CaCl2, 0.2% DMSO, pH 7.0.
Series [2] deals with T1, calmodulin (CaM). The series is described as follows: Avidin-based affinity resin derivatized with biotinylated CaM: retention of compound. The class given is binding. The source says:
Discrete complex formation to CaM was indicated by the release of a from the column, as monitored by HPLC, on elution with […] biotin. […] To amplify the binding event between CaM and a, an enzymatic assay was also employed.

Series [3] deals with T2, gp41 core model (N36/C34 six helix bundle) (Human immunodeficiency virus type 1 group M subtype B, UniProt P04578).
T2 construct: two peptides (N36 and C34), from the N and C heptad repeat regions of gp41; purchased HHMI Biopolymer/Keck Foundation Biotechnology Resource Center, Yale University School of Medicine; host or cells: synthetic peptides
T2 sequence (P04578 546-581): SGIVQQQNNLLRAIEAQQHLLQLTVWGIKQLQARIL
The class given is binding, HIV-1. To be noted: 10 μM gp41 core model, 50 mM PBS, 150 mM NaCl, pH 7.0, 4° C. The source says:
Spectra were corrected by the subtraction of a blank corresponding to the solvent composition of each sample.

For series [4], the target named is T1, calmodulin (CaM). As to the kind of experiment: Polyacrylamide gel permeation chromatography (6 kD cutoff) with and without CaM. The class given is binding. To be noted: 70 μM in buffer.
For a further series, the target named is Bcl-xL (Homo sapiens, UniProt Q07817). As to the kind of experiment: Fluorescence polarization assay: displacement of fluorescein-labeled 16-mer Bak-peptide from Bcl-xL. Type of series: binding. The settings on record: for binding affinity for Bcl-xL (in words): compared with m. Here is the method: Based on these structural requirements we designed a series of terphenyl molecules (k-n) containing alkyl or aryl substituents on the three ortho positions (to mimic the key i, i+3, and i+7 groups in Bak or Bad) and carboxylic acid substituents on either end (to mimic the additional ion pair) (FIG. 17). The binding affinity of these molecules for Bcl-xL was assessed by a fluorescence polarization assay using fluoresceine-labeled 16-mer Bak-peptide. Displacement of this probe through competitive binding of the terphenyl into the hydrophobic cleft of BCl-xL would lead to a decrease in its fluorescence polarization which in turn could be related to the known affinity of the 16-mer Bak/Bcl-xL complex.
Bcl-xL, sequence (Q07817 whole entry): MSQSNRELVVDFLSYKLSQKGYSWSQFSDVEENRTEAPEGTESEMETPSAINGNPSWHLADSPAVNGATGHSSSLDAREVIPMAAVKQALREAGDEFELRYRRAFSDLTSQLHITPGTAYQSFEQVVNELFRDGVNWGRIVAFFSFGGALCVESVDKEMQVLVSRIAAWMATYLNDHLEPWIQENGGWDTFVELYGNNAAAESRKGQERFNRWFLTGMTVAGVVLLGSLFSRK
In general terms: Polarisation of emitted light reports the rotation of a fluorescent probe.

`CCc1cc(-c2ccc(OCC(=O)O)cc2C(C)C)ccc1-c1cccc(Cc2ccccc2)c1.N` [48.NH4, Ammonium (3-benzyl-2′-ethyl-2″-isopropyl-[1,1′:4′,1″]terphenyl-4″-yloxy)-acetate]: the solubility in buffer result in the series “Solubility in buffer” is reported as “surprisingly soluble in buffer with <1% DMSO”.
For orientation: IC50 means the concentration that inhibits the measured activity by half. As to `CCc1cc(-c2ccc(OCC(=O)O)cc2C(C)C)ccc1-c1cccc(Cc2ccccc2)c1` [a, (3-Benzyl-2′-ethyl-2″-isopropyl-[1,1′:4′,1″]terphenyl-4″-yloxy)-acetic acid], at calmodulin (CaM) [1], the 50% inhibitory concentration (IC50) was found to be 800 nM. Further, the “inhibitory potency, fold less than RS20” value against calmodulin (CaM) [1] (relative to 20-mer peptide RS20) was found to be 10 fold. Besides, the “retention on avidin affinity resin derivatized with biotinylated CaM” value at calmodulin (CaM) [2] (CaM-derivatized resin) is given as “retention of the terphenyl on the column”. The “retention on underivatized avidin resin (control experiment)” value on calmodulin (CaM) [2] (underivatized avidin resin) is recorded as “no observable retention”.
For `CCc1cc(-c2ccc(OCC(=O)O)cc2C(C)C)ccc1-c1cccc(Cc2cccc3ccccc23)c1` [b, (2′-Ethyl-2″-isopropyl-3-naphthalen-1-ylmethyl-[1,1′:4′,1″]terphenyl-4″-yloxy)-acetic acid], at calmodulin (CaM) [1], the IC50 was 9 nM. Further, on calmodulin (CaM) [1] (relative to helical peptide RS20), the “potency, fold improvement over RS20” value is 8 fold.
As to `CCc1cc(-c2ccc(OCC(=O)O)cc2C(C)C)ccc1-c1cccc(Cc2ccc3ccccc3c2)c1` [c, (2′-Ethyl-2″-isopropyl-3-naphthalen-2-ylmethyl-[1,1′:4′,1″]terphenyl-4″-yloxy)-acetic acid], the IC50 on calmodulin (CaM) [1] was found to be 20 nM.
As for `CC(C)Cc1cc(-c2ccc(-c3ccc(CCCN)cc3CC(C)C)cc2C(C)C)ccc1OCCN.Cl.Cl` [g, 3-[4″-(2-aminoethoxy)-2,3″-diisobutyl-3′-isopropyl-1,1′:4′,1″-terphenyl-4-yl]propan-1-amine dihydrochloride], in series [3], the “effect on CD spectrum of gp41 core model (helicity of the hexameric bundle)” value (“effect on CD spectrum of gp41 core model” for short) is listed as “little effect on the protein CD spectrum even at high concentrations”. For the same molecule, the “behaviour on gel permeation column, compound alone” value on calmodulin (CaM) [4] (alone) is reported as “retained on the column”. For the same molecule, the “behaviour on gel permeation column, mixed with one equivalent of CaM” value on calmodulin (CaM) [4] (one equivalent of CaM) was “passed through”.
For the molecule `O=C(O)CCc1ccc(-c2ccc(OCC(=O)O)cc2)cc1` [i, 3-[4′-(carboxymethoxy)-1,1′-biphenyl-4-yl)propanoic acid], in series [3], the “effect on CD spectrum of gp41 core model” value is “little effect on the protein CD spectrum even at high concentrations”.
On to `CC(C)Cc1cc(CCC(=O)O)ccc1-c1ccc(-c2ccc(OCC(=O)O)c(Cc3ccccc3)c2)c(Cc2ccccc2)c1` [j, 3-(3′,3″-dibenzyl-4″-(carboxymethoxy)-2-isobutyl-1,1′:4′,1″-terphenyl-4-yl)propanoic acid], for which the “effect on CD spectrum of gp41 core model” value in series [3] is “modest enhancement in activity compared to f”.
As for `CC(C)Cc1cc(-c2ccc(-c3ccc(CCC(=O)O)cc3CC(C)C)cc2Cc2ccccc2)ccc1OCC(=O)O` [l, 3-(3′-Benzyl-4″-(carboxymethoxy)-2,3″-diisobutyl-1,1′4″1″-terphenyl-4-yl)propanoic acid], the “binding affinity for Bcl-xL (in words)” value on Bcl-xL is listed as “less binding affinity”.
By Kd is commonly meant the constant that tells how readily two partners part at equilibrium. Consider `CC(C)Cc1cc(-c2ccc(-c3ccc(CCC(=O)O)cc3CC(C)C)cc2Cc2cccc3ccccc23)ccc1OCC(=O)O` [m, 3-(4-(Carboxymethoxy)-3,2″-diisobutyl-2′-naphthalen-1-ylmethyl-[1,1′:4′,1″]-terphenyl-4″-yl)propionic acid], for which the Kd on Bcl-xL (related to known affinity of 16-mer Bak/Bcl-xL complex, read-out: KD-value, binding to Bcl-xL) is 114 nM.
As for `CC(C)Cc1cc(CCC(=O)O)ccc1-c1ccc(-c2ccc(OCC(=O)O)c(Cc3cccc4ccccc34)c2CC(C)C)cc1` [n, 3-(4-(Carboxymethoxy)-2,2″-diisobutyl-3-naphthalen-1-ylmethyl-[1,1′:4′,1″]-terphenyl-4″-yl)propionic acid], on Bcl-xL, the “binding affinity for Bcl-xL (in words)” value is on record as “significant loss in binding affinity”.
Turning to “Bis methyl 3-(1,1′:4′,1″-terphenyl-4,4″-yl)propanoic acid”, in series [3], the “effect on CD spectrum of gp41 core model” value is given as “little effect on the protein CD spectrum even at high concentrations”.
